Columns and labels:
[1] = system: 1BR3 (control cells); assay: pH2AX foci immunofluorescence 24 h after contacting, 1BR3 control fibroblasts; type: cell-based, human; details: for pH2AX(24) + 2xSEM / pH2AX(24): 1BR3; for pH2AX(24) + 2xSEM: 24 hours; for pH2AX(24): 24 hours after contacting
Description: (§1) In one embodiment, on receipt, the tissue sample (typically the biopsy) is established in the form of an amplifiable cell line without a viral or chemical transformation agent according to an ancillary procedure well known to culture laboratories, as underlined by the publication of Elkind et al. “The radiobiology of cultured mammalian cell”, Gordon and Breach (1967). Once the number of cells is sufficient (typically after 1 to 3 weeks), the first experiments are carried out using the process according to the invention. A cell sample is prepared: The cells are inoculated on glass coverslips in Petri dishes. A portion of these coverslips are contaminated with metals or pesticides or any other DNA-breaking chemical or biochemical agent at different concentrations. A further portion is not contaminated; it represents the spontaneous state. During contamination, the cells remain in the culture incubator at 37° C.
(§2) For the contaminated cells, characteristics are acquired corresponding to the state after an incubation time with the DNA-breaking chemical or biochemical agent. Said characteristics are represented by foci corresponding to the marker pH2AX. The cells on glass coverslips are then fixed, lysed and hybridized. The following procedure, known per se (Bodgi et al, “A single formula to describe radiation-induced protein relocalization: towards a mathematical definition of individual radiosensitivity”, J Theor Biol. 21 p 333:135-45.2013):
(§3) the cells are fixed in 3% paraformaldehyde and 2% sucrose for 15 minutes at ambient temperature and permeabilized in 20 mM HEPES buffer solution (4-(2-hydroxyethyl)-1-piperazine ethane sulfonic acid) at pH 7.4, 50 mM NaCl, 3 mM MgCl2, 300 mM sucrose, 0.5% Triton X-100 (a non-ionic surfactant having the formula t-Oct-C6H4-(OCH2CH2)×OH where x=9-10, CAS No. 9002-93-1, supplied for example by Sigma Aldrich) for 3 minutes. The glass coverslips are then washed in phosphate buffer saline (known as the acronym PBS) before immunological staining. The incubation took place for 40 min at 37° C. in PBS supplemented with 2% bovine serum albumin (known as the acronym BSA or fraction V, supplied for example by Sigma Aldrich) and was followed by a wash with PBS. Anti-pH2AX primary antibodies are used at a concentration of 1:800. The incubations with anti-mouse FITC or anti-rabbit TRITC secondary antibodies (1:100, supplied by Sigma Aldrich) were performed at 37° C. in 2% BSA for 20 minutes. Glass coverslips were treated with Vectashield™ containing DAPI (4,6-Diamidino-2-phenylindole) to label the nucleus. Staining with DAPI also makes it possible, indirectly, to determine the number of cells in phase G1 (nuclei with homogenous DAPI staining), in phase S (nuclei with numerous pH2AX foci), in phase G2 (nuclei with heterogeneous DAPI staining) and metaphases (visible chromosomes).
(§4) The results are acquired using these coverslips on an immunofluorescence microscope (Olympus model for example). The reading may be direct (typically by counting the foci on at least 50 cells in G0/G1 for each point) or using dedicated image analysis software, or on an automated microscope; preferably the software or automated microscope methods are calibrated with manual determinations.
(§5) Commercial 1BR3 and 149 BR control fibroblasts were amplified according to the recommendations of the supplier (SIGMA-ALDRICH) until the number of cells sought was obtained. After obtaining a sufficient number of cells (generally after one to 3 weeks), the first experiments were conducted using the process according to the invention. The cells were inoculated on glass coverslips in Petri dishes.
(§6) The acquisition of the results was carried out using these coverslips on an immunofluorescence microscope (Olympus model). The reading was performed directly by counting the foci obtained with the marker pH2AX on at least 50 cells in G0/G1 for each point or using dedicated image analysis software (imageJ). […]

[2] = system: 149BR (control cells); assay: pH2AX foci immunofluorescence 24 h after contacting, 149BR control fibroblasts; type: cell-based, human; details: for pH2AX(24) + 2xSEM / pH2AX(24): 149BR; for pH2AX(24) + 2xSEM: 24 hours; for pH2AX(24): 24 hours after contacting
Description: as §1, §2, §3, §4, §5, §6

[3] = system: 04PSL cells; assay: pH2AX foci immunofluorescence 24 h after contacting, 04PSL patient skin cell line; type: cell-based, human; details: for pH2AX: 24 hours after contacting (Table 3); for pH2AX(24) + 2xSEM: 24 hours; for pH2AX(24 h): 24 hours after contacting (Table 1)
Description: as §3
A skin cell sample from a patient was sampled by biopsy via the “skin punch” method known to those skilled in the art. The cell sample was then placed in DMEM medium+20% sterile fetal calf serum. The cell sample was then transferred without delay to a specialized laboratory, so that the sample remained not more than 38 hours at ambient temperature.
On receipt, the cell sample from the biopsy was established in the form of an amplifiable 04PSL cell line according to a procedure well known to culture laboratories and those skilled in the art: using particularly the trypsin dispersion, the cells are once again diluted in replenished medium and so on until the number of cells sought is obtained. […] The 04PSL line cells were inoculated on glass coverslips in Petri dishes.
The acquisition of the results was carried out using these coverslips on an immunofluorescence microscope (Olympus model). The reading was performed directly by counting the foci obtained with the marker pH2AX on at least 50 cells in G0/G1 for each point or using dedicated image analysis software (imageJ).
In order to obtain results of sufficient statistical reliability to serve as a basis for diagnosis, 3 independent series of experiments were performed.
(§7) In tables 3 and 4, “pH2AX” corresponds to the mean number of nuclear foci obtained with the marker pH2AX, 24 hours after contacting the cell sample with the chemical agent at the concentration C (NpH2AX(24 h, C)), and where “Micronuclei” corresponds to the mean number of micronuclei observed per 100 cells 24 hours after contacting the cell sample with the chemical agent at the concentration C(NMN(24 h, C)).

[4] = system: 04PSL cells; assay: Micronuclei per 100 cells (DAPI) 24 h after contacting, 04PSL; type: cell-based, human
Description: as §1, §3
Counterstaining with DAPI (a DNA marker known to those skilled in the art) makes it possible to locate the nucleus to situate the cytoplasmic or nuclear location to quantify the micronuclei, which are complementary cell markers to the data on the foci.
The tables hereinafter summarize the results of numerous experiments which were carried out as described in the “Detailed description” section above.
as §7

[5] = system: pH2AX nuclear foci (DNA double-strand breaks); assay: Single toxicity scale: reference concentration Cref and risk group prediction from NpH2AX(24 h); type: cell-based, human
Description: (i) if the reference concentration has not previously been determined by the chemical or biochemical agent to be studied, a cell sample is prepared by dispersion and/or amplification of so-called reference cells (sensitivity group I); a plurality of concentrations within a broad concentration range of said breaking agent (said concentration range ranging for example from nM to mM) is applied for a predetermined period of time (preferably 24 hours) on this cell sample; pH2AX immunofluorescence is performed with DAPI counterstaining which also enables on the same cell sample the analysis of micronuclei for all the concentrations applied.
(ii) Either the mean number of nuclear foci observed with the marker pH2AX at the observation times t and at the concentration C (this mean number being referred to as NpH2AX(t, C)), or the mean number of micronuclei per 100 cells at the observation times t and at the concentration C (this mean number being referred to as NMN(t, C)), or the standard error a corresponding to the error committed on these respective measurements which must be performed on at least 50 nuclei once (Gaussian standard error) or 3 independent experiments of 50 nuclei (standard error of the mean).
(iii) The so-called reference concentration Cref is the concentration giving:
NpH2AX(24 h,Cref)+2σ=2 or indeed NMN(24 h,Cref)+2σ=2%;
If for the cell sample NpH2AX(24 h, Cref)<=2 or NMN(24 h, Cref)<=0.5%, preferably NMN(24 h, Cref)<=1% or even more preferentially NMN(24 h, Cref)<=2%, then the genotoxic risk is considered to be low or described as “Group I”
The experimental data presented in table 4 above were used to determine the reference concentration Cref particularly for Pb(NO3)2 (Cref<1 μM) and CdCl2 (Cref=10 μM).
Table 5 presents numerical examples of correspondence between the single toxicity scale according to the invention and the corresponding clinical signs.

[6] = system: humans exposed; details: Hinkley USA; cited from earlier work

O=C(O)CNCP(=O)(O)O [glyphosate]
pH2AX(24) + 2xSEM ([1]; glyphosate 3 μM): 1.856 foci | pH2AX(24) ([1]; glyphosate 3 μM): 1.6 foci | pH2AX(24) + 2xSEM ([1]; glyphosate 10 μM): 1.856 foci | pH2AX(24) ([1]; glyphosate 10 μM): 1.6 foci | pH2AX(24) + 2xSEM ([1]; glyphosate 30 μM): 2.204 foci | pH2AX(24) ([1]; glyphosate 30 μM): 1.9 foci | pH2AX(24) + 2xSEM ([1]; glyphosate 100 μM): 2.32 foci | pH2AX(24) ([1]; glyphosate 100 μM): 2 foci | pH2AX(24) + 2xSEM ([1]; glyphosate 300 μM): 2.668 foci | pH2AX(24) ([1]; glyphosate 300 μM): 2.3 foci | reference concentration Cref defined by NpH2AX(24 h, Cref)+2σ=2 ([1]; control cell line 1BR3): 100 µM | pH2AX(24) + 2xSEM ([2]; glyphosate 3 μM): 0.928 foci | pH2AX(24) ([2]; glyphosate 3 μM): 0.8 foci | pH2AX(24) + 2xSEM ([2]; glyphosate 10 μM): 1.16 foci | pH2AX(24) ([2]; glyphosate 10 μM): 1 foci | pH2AX(24) + 2xSEM ([2]; glyphosate 30 μM): 1.74 foci | pH2AX(24) ([2]; glyphosate 30 μM): 1.5 foci | pH2AX(24) + 2xSEM ([2]; glyphosate 100 μM): 2.088 foci | pH2AX(24) ([2]; glyphosate 100 μM): 1.8 foci | pH2AX(24) + 2xSEM ([2]; glyphosate 300 μM): 3.48 foci | pH2AX(24) ([2]; glyphosate 300 μM): 3 foci | reference concentration Cref defined by NpH2AX(24 h, Cref)+2σ=2 ([2]; control cell line 149BR): 100 µM | pH2AX ([3]; 3 μM): 1.7 foci | pH2AX ([3]; 10 μM): 1.9 foci | pH2AX ([3]; 30 μM): 4.8 foci | pH2AX ([3]; 100 μM): 6.5 foci | pH2AX ([3]; 300 μM): 8.7 foci | pH2AX(24) + 2xSEM ([3]; glyphosate 3 μM): 1.972 foci | pH2AX(24 h) ([3]; glyphosate 3 μM): 1.7 foci | pH2AX(24) + 2xSEM ([3]; glyphosate 10 μM): 2.088 foci | pH2AX(24 h) ([3]; glyphosate 10 μM): 1.8 foci | pH2AX(24) + 2xSEM ([3]; glyphosate 30 μM): 4.756 foci | pH2AX(24 h) ([3]; glyphosate 30 μM): 4.1 foci | pH2AX(24) + 2xSEM ([3]; glyphosate 100 μM): 6.96 foci | pH2AX(24 h) ([3]; glyphosate 100 μM): 6 foci | pH2AX(24) + 2xSEM ([3]; glyphosate 300 μM): 9.744 foci | pH2AX(24 h) ([3]; glyphosate 300 μM): 8.4 foci | number of pH2AX foci ([3]; glyphosate concentration of 100 μM, 24 h): approximately 7 foci | Micronuclei ([4]; 3 μM): 6 per 100 cells | Micronuclei ([4]; 10 μM): 4 per 100 cells | Micronuclei ([4]; 30 μM): 10 per 100 cells | Micronuclei ([4]; 150 μM): 12 per 100 cells | Micronuclei ([4]; 300 μM): 14 per 100 cells

[Na+].[Na+].[O]=[Cr](=[O])([O-])[O-] [Chromium, Na2CrO4]
Reference concentration Cref ([5]; NpH2AX(24 h) < 2): 3 nM | Prediction based on algorithm: concentration above which “Group III” risk ([5]; NpH2AX(24 h) > 8): predicted above 30 nM | Cases of poisoning, concentration in tap water (estimated) [6]: concentration in tap water was estimated at 23 Nm | Cases of poisoning, concentration in well water [6]: 1.19 g/L | Cases of poisoning, concentration in well water, equivalent [6]: 4.6 mM
